Laboratory results published in US20070128217A1 (priority 2003, published 2007).

Experiments:
[1] = tested on: rabbit serum obtained by immunizing a rabbit with the SARS-CoV strain Frankfurt 1; type: binding; design: Binding of a rabbit serum to linear peptides / Binding of a rabbit serum to looped peptides / Rabbit serum linear peptides / Rabbit serum looped peptides / Binding of a rabbit serum to linear peptides of protein N of SARS-CoV Urbani (Rabbit serum linear peptides) / Binding of a rabbit serum to looped/cyclic peptides of protein N of SARS-CoV Urbani (Rabbit serum looped peptides): unit not given here
[2] = tested on: recombinant human anti-SARS-CoV antibody 03-018; type: binding; design: Binding of antibody 03-018 to linear peptides of the N protein of SARS-CoV Urbani / Binding of antibody 03-018 to looped/cyclic peptides of the N protein of SARS-CoV Urbani: unit not given here
[3] = tested on: antibodies in sera from SARS patients (sera 1a, 1b, 2, 6, 37, 62, London, SARS-yellow, SARS-green); type: binding, human; design: Binding of serum 6 to linear peptides of protein X1 of SARS-CoV Urbani / Binding of serum 37 to linear peptides of protein X1 of SARS-CoV Urbani / Binding of serum 6 to looped/cyclic peptide (PEPSCAN-ELISA) / Binding of serum 37 to looped/cyclic peptide (PEPSCAN-ELISA) / Binding of serum 37 to looped/cyclic peptides of protein X1 of SARS-CoV Urbani / Binding of serum 6 to linear peptides of protein X2 / Binding of serum 37 to linear peptides of protein X2 / Binding of serum 37 to looped/cyclic peptides of protein X2 of SARS-CoV Urbani / Binding of serum 6 to linear peptides of protein M of SARS-CoV Urbani / Binding of serum 37 to linear peptides of protein M of SARS-CoV Urbani / Binding of serum 6 to looped/cyclic peptides of protein M of SARS-CoV Urbani / Binding of serum 37 to looped/cyclic peptides of protein M of SARS-CoV Urbani / Binding of serum 6 to linear peptides of protein X3 of SARS-CoV Urbani / Binding of serum 37 to linear peptides of protein X3 of SARS-CoV Urbani / Binding of serum 37 to looped/cyclic peptides of protein X3 of SARS-CoV Urbani / Binding of serum 6 to linear peptides of protein X4 of SARS-CoV Urbani / Binding of serum 37 to linear peptides of protein X4 of SARS-CoV Urbani / Binding of serum 37 to looped/cyclic peptides of protein X4 of SARS-CoV Urbani / Binding of serum 6 to linear peptides of protein X5 of SARS-CoV Urbani / Binding of serum 37 to linear peptides of protein X5 of SARS-CoV Urbani / Binding of serum 37 to looped/cyclic peptides of protein X5 of SARS-CoV Urbani / Binding of serum 6 to linear peptides of protein N of SARS-CoV Urbani / Binding of serum 37 to linear peptides of protein N of SARS-CoV Urbani / Binding of serum 6 to linear peptide (PEPSCAN-ELISA) / Binding of serum 1a to looped/cyclic peptides of protein N of SARS-CoV Urbani / Binding of serum 1b to looped/cyclic peptides of protein N of SARS-CoV Urbani / Binding of serum 2 to looped/cyclic peptides of protein N of SARS-CoV Urbani / Binding of serum 6 to looped/cyclic peptides of protein N of SARS-CoV Urbani / Binding of serum 37 to looped/cyclic peptides of protein N of SARS-CoV Urbani / Binding of serum 62 to looped/cyclic peptides of protein N of SARS-CoV Urbani / Binding of serum London to looped/cyclic peptides of protein N of SARS-CoV Urbani / Binding of serum SARS-green to looped/cyclic peptides of protein N of SARS-CoV Urbani: unit not given here
[4] = tested on: control sera (pooled serum of ten healthy LUMC hospital workers; commercial negative donor pooled serum from the Dutch bloodbank); type: binding, human; design: Binding of Control serum LUMC to linear peptides / Binding of Control serum Blood-bank to linear peptides / Binding of Control serum LUMC to looped peptides / Binding of Control Serum Blood-Bank to Looped peptides / Binding of Control serum LUMC to linear peptides of the protein M of SARS-CoV Urbani / Binding of Control serum Blood-bank to linear peptides of the protein M of SARS-CoV Urbani / Binding of Control serum LUMC to looped peptides of the protein M of SARS-CoV Urbani / Binding of Control Serum Blood-Bank to Looped peptides of the protein M of SARS-CoV Urbani: unit not given here

Row | Sequence | Binding of a rabbit serum to linear peptides of protein N of SARS-CoV Urbani (Rabbit serum linear peptides) [1] | Binding of a rabbit serum to looped/cyclic peptides of protein N of SARS-CoV Urbani (Rabbit serum looped peptides) [1] | Binding of antibody 03-018 to linear peptides of the N protein of SARS-CoV Urbani [2] | Binding of antibody 03-018 to looped/cyclic peptides of the N protein of SARS-CoV Urbani [2] | Binding of serum 1a to linear peptides of protein N of SARS-CoV Urbani [3] | Binding of serum 1a to looped/cyclic peptides of protein N of SARS-CoV Urbani [3] | Binding of serum 1b to linear peptides of protein N of SARS-CoV Urbani [3] | Binding of serum 1b to looped/cyclic peptides of protein N of SARS-CoV Urbani [3] | Binding of serum 2 to linear peptides of protein N of SARS-CoV Urbani [3] | Binding of serum 2 to looped/cyclic peptides of protein N of SARS-CoV Urbani [3] | Binding of serum 6 to looped/cyclic peptides of protein N of SARS-CoV Urbani [3] | Binding of serum 37 to looped/cyclic peptides of protein N of SARS-CoV Urbani [3] | Binding of serum 62 to looped/cyclic peptides of protein N of SARS-CoV Urbani [3] | Binding of serum London to looped/cyclic peptides of protein N of SARS-CoV Urbani [3] | Binding of serum SARS-green to looped/cyclic peptides of protein N of SARS-CoV Urbani [3] | Binding of serum SARS-yellow to looped/cyclic peptides of protein N of SARS-CoV Urbani [3] | Binding of Control Serum Blood-Bank to Looped peptides [4] | Binding of Control serum Blood-bank to linear peptides [4] | Binding of Control serum LUMC to linear peptides [4] | Binding of Control serum LUMC to looped peptides [4] | other results
1 | DHIGTRNPNNNAATV | 0.1 | 0.5 | 0.1 | 0.3 | 0.3 | 0.5 | 0.1 | 0.4 | 0.3 | 0.8 | 0.5 | 1.1 | 0.8 | 0.7 | 0.5 | 0.6 | 0.9 | 0.8 | 0.7 | 1.0 | Binding of serum 6 to linear peptides of protein N of SARS-CoV Urbani [3]: 0.2; Binding of serum 37 to linear peptides of protein N of SARS-CoV Urbani [3]: 0.7; Binding of serum 62 to linear peptides of protein N of SARS-CoV Urbani [3]: 0.7; Binding of serum London to linear peptides of protein N of SARS-CoV Urbani [3]: 0.5; Binding of serum SARS-green to linear peptides of protein N of SARS-CoV Urbani [3]: 0.5; Binding of serum SARS-yellow to linear peptides of protein N of SARS-CoV Urbani [3]: 0.7
2 | KGFYAEGSRGGSQAS | 0.1 | 0.1 | 0.1 | 0.2 | – | 0.3 | – | 0.2 | – | 0.3 | 0.2 | 0.4 | 0.3 | 0.3 | 0.1 | 0.1 | 0.5 | 0.7 | 0.5 | 0.4 | Binding of serum 1a to linear peptide (PEPSCAN-ELISA) [3]: 0.2; Binding of serum 1b to linear peptide (PEPSCAN-ELISA) [3]: 0.1; Binding of serum 2 to linear peptide (PEPSCAN-ELISA) [3]: 0.2; Binding of serum 6 to linear peptide (PEPSCAN-ELISA) [3]: 0.2; Binding of serum 37 to linear peptide (PEPSCAN-ELISA) [3]: 0.6; Binding of serum 62 to linear peptide (PEPSCAN-ELISA) [3]: 0.5; Binding of serum London to linear peptide (PEPSCAN-ELISA) [3]: 0.4; Binding of serum SARS-green to linear peptide (PEPSCAN-ELISA) [3]: 0.2; Binding of serum SARS-yellow to linear peptide (PEPSCAN-ELISA) [3]: 0.5
3 | TDSTDNNQNGGRNGA | 0.1 | 0.2 | 0.2 | 0.2 | 0.3 | 0.4 | 0.2 | 0.3 | 0.2 | 0.6 | 0.3 | 0.7 | 0.3 | 0.6 | 0.8 | 0.7 | 0.7 | 1.1 | 0.8 | 0.8 | Binding of serum 6 to linear peptides of protein N of SARS-CoV Urbani [3]: 0.3; Binding of serum 37 to linear peptides of protein N of SARS-CoV Urbani [3]: 1.0; Binding of serum 62 to linear peptides of protein N of SARS-CoV Urbani [3]: 0.8; Binding of serum London to linear peptides of protein N of SARS-CoV Urbani [3]: 0.6; Binding of serum SARS-green to linear peptides of protein N of SARS-CoV Urbani [3]: 1.0; Binding of serum SARS-yellow to linear peptides of protein N of SARS-CoV Urbani [3]: 0.7
4 | LDRLNQLESKVSGKG | 0.0 | 0.4 | 0.1 | 0.2 | – | 0.4 | – | 0.3 | – | 0.4 | 0.3 | 0.4 | 0.4 | 0.4 | 0.2 | 0.3 | 0.5 | 1.0 | 0.8 | 0.5 | Binding of serum 1a to linear peptide (PEPSCAN-ELISA) [3]: 0.3; Binding of serum 1b to linear peptide (PEPSCAN-ELISA) [3]: 0.2; Binding of serum 2 to linear peptide (PEPSCAN-ELISA) [3]: 0.3; Binding of serum 6 to linear peptide (PEPSCAN-ELISA) [3]: 0.3; Binding of serum 37 to linear peptide (PEPSCAN-ELISA) [3]: 0.5; Binding of serum 62 to linear peptide (PEPSCAN-ELISA) [3]: 0.6; Binding of serum London to linear peptide (PEPSCAN-ELISA) [3]: 0.5; Binding of serum SARS-green to linear peptide (PEPSCAN-ELISA) [3]: 0.8; Binding of serum SARS-yellow to linear peptide (PEPSCAN-ELISA) [3]: 0.7
